Laboratory results published in patent publication US5770563A, “Heparin- and sulfatide binding peptides from the type I repeats of human thrombospondin and conjugates thereof” (The United States of America as represented by the …, priority 1995, dated 1998).
pIC50: −log10 of the molar value. One block for each compound: values may come before it. Square brackets hold non-standard residues; d marks the D form. Ends that are not written are not given here. Peptide text beside a SMILES is read from it.

Legend:
MDA MB435 tumor = assay: MDA MB435 orthotopic tumor growth in nude mice; format: in vivo, mouse
Method: (§1) Tumor cells were allowed to implant for approximately one to three weeks prior to administering the peptide analog or a polysucrose conjugate. […] The inhibitory effect persisted beyond the treatment period, although the growth of the tumors eventually resumed.
The presented experiment consisted of two groups of animals. The objective was to test a peptide conjugate for effects on breast carcinoma growth. The treated animals were injected with MDA435 cells alone on day one and then injected intravenously with drugs from day 10 through approximately day 30. Tumor growth and frequency of metastasis were determined in both groups.
NIH Nu/Nu mice, approximately eight weeks of age are injected with 10^5 MDA MB435 cells by the mammary fat pad route. Mice were anesthetized with 150-200 μl i.p. of a 1:80 dilution in PBS of a solution containing 25 g. tribromoethanol in 12.5 ml tertiary amyl alcohol. The mammary fat pad was cleaned with ethanol and a 10 mm incision was made directly above the site of injection. Mammary fat pad #4 could be observed beneath the skin after the incision was made. Using a 0.1 ml Hamilton syringe and 27 gauge 1/2" needle, 10 μl of cell suspension, 1×10^5 cells in HBSS, are injected into the fat pad. The incision is closed using 1-2 Autoclips ([…], Clay Adams). Autoclips are removed 7 days post-injection and scarring is minimal.
Six animals were injected for each condition, per experiment. Animals were earpunched after injection for subsequent identification. Beginning at day 10 and continuing every day until approximately day 30, the experimental animals were injected i.v. (tail vein) with 0.1 ml of the FICOLL conjugate. Primary tumor size was determined twice weekly by length×width×height measurement, and the animals are observed daily for general health. When the primary tumor of any animal exceeded 20 mm in any dimension, all of the animals were sacrificed. The presence of metastases was determined by gross autopsy and examination of H & E stained sections of any suspicious organ and step sections of the lungs and draining lymph nodes. The primary tumors were removed, stripped free of other tissues, and weighed. At any time during the experiment, animals suspected of being in distress were sacrificed and examined as above.

AIDS-KS lesion = assay: Kaposi's sarcoma angiogenic lesion formation in nude mice; format: in vivo; settings: intravenous, nude mouse
Method: For determination of In vivo Angiogenesis, 2×10^6 AIDS-KS cells suspended in phosphate buffered saline without calcium and magnesium (PBS w/o), passage 6-8, were transplanted subcutaneously on day 0 of the flanks of male Balb/c nu/nu athymic mice. The animals were injected intravenously with increasing dilutions of TSP peptide-FICOLL conjugates or the equivalent concentrations of FICOLL mixed in PBS w/o as a control from days 1-5. On day 6 the angiogenic lesions were observed, measured, fixed in 10% formalin, and stained with hematoxylin-eosin.

[1] = system: bovine corneal endothelial cells; format: cell-based
Method: Corneal bovine endothelial cells (BCE cells) were used at passages 2 through 8 (Munjal et al., 1990). BCE cell cultures were maintained in DMEM (low glucose), containing 10% FCS, 4 mM glutamine, 2.5 μg/ml amphotericin B, and 500 U/ml each of penicillin G potassium and streptomycin sulfate (all media components were from Biofluids Inc., Rockville, Md.). BCE cells were grown at 34° in 5% CO2. The media were changed every 2-3 days.
(§2) Endothelial cell proliferation was measured using the CELL TITER 96™ assay (Promega, Madison, Wis.). 5×10^3 cells were plated into each well of a 96-well culture plate in 0.5 or 5% FCS-containing medium together with the indicated concentrations of growth effectors. After 72 h, 15 μl of dye solution was added to each well, and the plates were incubated for an additional 4 h. Solubilization solution was added, and absorbance at 570 nm was determined after 24 h as described by the manufacturer.

[2] = system: thrombospondin binding to heparin; assay: Inhibition of 125I-thrombospondin binding to immobilized heparin-BSA; design: species or system human
How it was run: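 Solid-phase binding: heparin-BSA (0.2 μg/well) adsorbed 2 h at 37° in Dulbecco's PBS, blocked with tris-BSA. Peptides in 50 mM tris pH 7.8, NaCl, 1 mM CaCl2, 0.025% NaN3, 1% BSA mixed with 125I-thrombospondin (added at 0.2 μg/ml), 3 h at 4°; after saline washes, bound radioactivity counted.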

[3] = system: bovine aortic endothelial cells; assay: Proliferation of bovine aortic endothelial cells; format: cell-based; settings: free peptide, 40 μM
Method: as §2
FICOLL conjugates of peptide 353 (SEQ ID NO:28) (GGWSHWSPWSSC), 354 (SEQ ID NO:29) (CGGWSHWSPWSS), 224 364 g (SEQ ID NO:30) and 387 (SEQ ID NO:30) (three syntheses of KRFKQDGGWSHWSPWSSC), or free FICOLL were tested at the indicated concentrations as inhibitors of proliferation of bovine aortic endothelial cells in DMEM medium containing 0.5% (FIG. 24A) or 5% (FIG. 24B) fetal calf serum. […] Therefore, the conjugates are general inhibitors of both large and small vessel endothelial cell proliferation. […]
Proliferation of bovine aortic endothelial cells was also determined for cells grown in the presence of the indicated concentrations of peptide 246 (KRFKQDGGWSHWSPWSS) (SEQ ID NO:19) or peptide 416 (retro-inverso) in RPMI-HITES (reg medium) or corresponding conditioned medium from MDA 435 breast carcinoma cells. […]

[4] = system: MDA MB435 breast carcinoma cells; assay: MDA MB435 human breast carcinoma cell proliferation; format: cell-based; settings: free peptide
Method: Human breast carcinoma cells MDA MB435 (American Type Culture Collection) were grown in RPMI 1640 medium containing 10% fetal calf serum. Proliferation was determined as described in FIG. 18 and 44A, B and C.
Human breast carcinoma cells MDA MB435 (American Type Culture Collection) were grown in RPMI 1640 medium containing 10% fetal calf serum. Proliferation was determined in the presence of 0.5% fetal calf serum and bFGF as described in FIG. 19.

Toxicity in nude mice = format: in vivo, mouse; settings: free peptide, up to 10 mg/kg
Text: as §1
Based on published studies of related peptide conjugates (Braatz J. A., Yashuda Y., Olden K., Yamada K. M., Heifetz A. H. (1993): Functional peptide-polyurethane conjugates with extended circulatory half lives. Bioconjugate Chem 4:262-267), the conjugates are predicted have circulating half lives on the order of 10 hours. Free peptides usually have circulating half lives of less than 10 minutes, based on published results. The short half lives were due to clearance or stability of the peptides in plasma. Use of nonhydrolyzable amino acid analogs or capping modifications of the peptides decreases sensitivity to degradation.

Solubility = format: physicochemical
AIDS-KS cells [5] = assay: AIDS-KS cell proliferation; format: cell-based, human
Method: AIDS-KS cell strains were cultured as previously described (Nakamura, S. et al. "Kaposi's Sarcoma Cells: Long-Term Culture with Growth Factor From Retrovirus-Infected CD4+T Cells", Science, (1988) 242:426; and Salahuddin, S. Z. et al. "Angiogenic Properties of kaposi's Sarcoma-Derived Cells After Long-Term Culture In Vitro", Science (1988) 242:430). TSP was purified from thrombin-stimulated human platelets as described. TSP peptides and peptide conjugates were synthesized corresponding to sequences of human TSP as described.
For the cell proliferation assays 1×10^3 cells/well were seeded in triplicate in 24 well flat bottom plates (Falcon, Franklin Lakes, N.J.) that contained the required dilutions of TSP, TSP peptide-FICOLL conjugates, and growth factors: 1) Oncostatin M (OSM) (PreProtech) at 25 ng/ml, or 2) activated lymphocyte conditioned medium (AL-CM) at 20%. After 7 days, the cells were trypsinized and counted using a Coulter Zm Cell Counter (Coulter Corporation). The values are triplicate determinations and the bars indicate standard deviations, n=3.

AIDS-KS cells [6] = assay: AIDS-KS cell chemotaxis, modified Boyden chamber; format: cell-based, human
Method: Directed migration (chemotaxis) and general migration (chemokinesis) of AIDS-KS cells in culture was measured by the modified Boyden chamber assay using fibronectin coated […] Nucleopore filters as previously described. In brief, the AIDS-KS cells, were trypsinized then resuspended in RPMI 1640 containing […] (GIBCO-BRL) and 20% activated lymphocyte conditioned medium. The trypsinized cells were allowed to recover in suspension for 2 hours, then the cells were recovered by centrifugation and resuspended in RPMI 1640 containing 0.1% BS at 5×10^5 cells/ml prior to adding 100 μl to the upper wells in the chemotaxis chamber. Migration to BSA (0.1%) and OSM was performed in the presence of the indicated concentrations of TSP, and TSP peptide-FICOLL conjugates. After 3 hours incubation at 37° C. filters were stained with Diff Quick (Merz-Dade, Dudingen, Switzerland), and the migrated cells in ten high-power fields were counted. The values are triplicate determinations and the bars indicate standard deviations, n=3.

[7] = polysucrose/FICOLL conjugate, intravenous

Compound: 364f: KRFKQDGGWSHWSPWSSC conjugated to FICOLL, several preparations (also: conjugated to FICOLL) [Peptide 364f]
- tumor growth (MDA MB435 tumor; [7]): delays tumor growth
- AIDS-KS lesion formation (AIDS-KS lesion): strongly inhibited AIDS-KS lesion formation

Compound: N=C(N)NCCC[C@H](NC(=O)[C@@H](N)CCCCN)C(=O)N[C@@H](Cc1ccccc1)C(=O)N[C@@H](CCCCN)C(=O)N[C@@H](CCC(N)=O)C(=O)N[C@@H](CC(=O)O)C(=O)NCC(=O)NCC(=O)N[C@@H](Cc1c[nH]c2ccccc12)C(=O)N[C@@H](CO)C(=O)N[C@@H](Cc1c[nH]cn1)C(=O)N[C@@H](Cc1c[nH]c2ccccc12)C(=O)N[C@@H](CO)C(=O)N1CCC[C@H]1C(=O)N[C@@H](Cc1c[nH]c2ccccc12)C(=O)N[C@@H](CO)C(=O)N[C@@H](CO)C(=O)O [Peptide 246, KRFKQDGGWSHWSPWSS] (H-KRFKQDGGWSHWSPWSS-OH)
- pIC50 [1]: 4.40

Compound: CC(=O)N[C@H](CS)C(=O)N[C@H](CO)C(=O)N[C@H](CO)C(=O)N[C@H](Cc1c[nH]c2ccccc12)C(=O)N1CCC[C@@H]1C(=O)N[C@H](CO)C(=O)N[C@H](Cc1c[nH]c2ccccc12)C(=O)N[C@H](Cc1c[nH]cn1)C(=O)N[C@H](CO)C(=O)N[C@H](Cc1c[nH]c2ccccc12)C(=O)NCC(=O)NCC(=O)N[C@H](CC(=O)O)C(=O)N[C@H](CCC(N)=O)C(=O)N[C@H](CCCCN)C(=O)N[C@H](Cc1ccccc1)C(=O)N[C@H](CCCNC(=N)N)C(=O)N[C@H](CCCCN)C(N)=O [Peptide 416, ri-amKRFKQDGGWSHWSPWSSCac] (Ac-[dC][dS][dS][dW][dP][dS][dW][dH][dS][dW]GG[dD][dQ][dK][dF][dR][dK]-NH2)
- inhibition of thrombospondin binding to heparin, in words ([2]; FICOLL conjugate): active
- inhibition of thrombospondin binding to heparin, in words ([2]; free peptide): retains heparin-binding activity
- inhibition of thrombospondin binding to heparin, in words ([2]; free peptide, listed as all D-acCSSWPSWHSWGGDQKFRKam): retained full activity
- activity relative to the native sequence ([2]; free retro-inverso peptide): approximately three-fold less
- pIC50 ([2]; retro-inverso peptides, free, read-out: IC50 Inhibitory Activity, Free Peptide): 6.40
- inhibition of aortic endothelial cell proliferation, in words [3]: significantly inhibit proliferation
- inhibition of MDA MB435 proliferation, in words [4]: substantial inhibition of MDA cell proliferation
- tumor growth, dose response (MDA MB435 tumor; 0.2 to 6 mg/kg, treatment with 6 mg/kg): maximal inhibition of tumor growth
- tumor growth (MDA MB435 tumor; free peptide, daily intravenous, 2 mg/kg): significantly inhibited tumor growth
- tumor growth (MDA MB435 tumor; [7]): No significant inhibition of tumor growth
- toxicity (Toxicity in nude mice): without overt toxicity

More lines, main results first:

- inhibition of thrombospondin binding to heparin, in words ([2]; free peptide): good activity
Compound: CC(=O)N[C@@H](CCCCN)C(=O)N[C@@H](CCCNC(=N)N)C(=O)N[C@@H](C)C(=O)N[C@@H](CCCCN)C(=O)N[C@@H](C)C(=O)N[C@@H](C)C(=O)NCC(=O)NCC(=O)N[C@@H](Cc1c[nH]c2ccccc12)C(=O)N[C@@H](CO)C(=O)N[C@@H](Cc1c[nH]cn1)C(=O)N[C@@H](Cc1c[nH]c2ccccc12)C(=O)N[C@@H](C)C(=O)N[C@@H](CO)C(=O)N[C@@H](CS)C(N)=O [acKRAKAAGGWSHWASCam] (Ac-KRAKAAGGWSHWASC-NH2)
- solubility characteristics (Solubility): good activity and solubility characteristics

- pIC50 (AIDS-KS cells [6]; added with OSM, read-out: IC50 inhibition of OSM stimulated migration): > 6.96
Compound: TSP: thrombospondin purified from thrombin-stimulated human platelets
- inhibition of AIDS-KS cell proliferation, in words (AIDS-KS cells [5]): concentration dependent decrease in cell number
- stimulation of AIDS-KS cell motility (AIDS-KS cells [6]; added in the lower well): dose-dependent stimulation of AIDS-KS cell motility
